Results: paper PMC5607274, “An iterative compound screening contest method for identifying target protein inhibitors using the tyrosine-protein kinase Yes” (Scientific Reports, 2017)

The compounds below were run against T1, human recombinant Yes [a.a. 2–543 (end)] (Homo sapiens, UniProt P07947) (assay: ADP-Glo kinase assay, inhibition rates of Yes phosphorylation activity (first and second screening)). Conditions: first screening; mean of n = 4 wells; 10 μmol L−1 compound.
T1 construct: human recombinant Yes [a.a; 2–543 (end)]; purchased BPS Bioscience 40488
T1 sequence (P07947 2-543): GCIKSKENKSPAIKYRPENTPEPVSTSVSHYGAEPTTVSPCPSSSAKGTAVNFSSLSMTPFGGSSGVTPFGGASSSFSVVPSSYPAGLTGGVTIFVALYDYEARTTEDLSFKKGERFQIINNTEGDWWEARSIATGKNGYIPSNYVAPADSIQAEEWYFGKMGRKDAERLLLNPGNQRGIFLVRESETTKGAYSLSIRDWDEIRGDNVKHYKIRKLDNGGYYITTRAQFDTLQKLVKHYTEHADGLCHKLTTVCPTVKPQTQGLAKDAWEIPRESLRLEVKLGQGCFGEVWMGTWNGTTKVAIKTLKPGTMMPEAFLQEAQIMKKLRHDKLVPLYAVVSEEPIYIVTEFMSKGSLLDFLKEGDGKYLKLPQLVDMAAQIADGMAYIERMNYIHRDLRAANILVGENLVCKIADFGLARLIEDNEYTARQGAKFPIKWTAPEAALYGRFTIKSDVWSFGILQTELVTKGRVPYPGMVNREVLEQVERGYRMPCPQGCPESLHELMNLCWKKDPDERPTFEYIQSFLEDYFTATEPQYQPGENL
Assay type: biochemical
Method in brief: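 Hits from a first pass were rescreened after re-dissolution from fresh powder. The first pass reported the mean inhibition rate of quadruplicate wells per compound. Activity was that of recombinant human Yes [a.a. 2–543] kinase, read out with the ADP-Glo ADP-detection method.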

SMILES | First screening IR (inhibition rate) [%]
Cc1nc(-c2cccc(NC(=O)CC(NC(N)=O)c3ccc(Cl)cc3)c2)cs1 (stereo not shown) [Compound Z52058293] | -6
O=C(O)c1ccc2nc3c(nc2c1)-c1cccc2cccc-3c12 [Compound Z55723243] | 15
CCN1C/C(=C/c2ccc(F)cc2)c2nc3ccccc3c(C(=O)O)c2C1 [Compound Z46146538] | 5
CCN(C1CCS(=O)(=O)C1)S(=O)(=O)c1ccc(Cl)c(Cl)c1 (stereo not shown) [Compound Z45467101] | 12
CC(=O)N1CCN(c2nc(C(F)(F)F)nc3ccsc23)CC1 [Compound Z370715150] | 6
Cc1ccc(S(C)(=O)=O)cc1S(N)(=O)=O [Compound Z385450636] | 26
Clc1ccc(/C=C2/CCCc3c2nc2ncnn2c3-c2ccc(Cl)cc2Cl)c(Cl)c1 [Compound Z56798990] | 3
O=C(c1cc(C2CC2)[nH]n1)N1CCC(=Cc2cc(Cl)ccc2Cl)CC1 [Compound Z1432870591] | 2
CCN(c1cccnc1)S(=O)(=O)c1cc(S(C)(=O)=O)ccc1Cl [Compound Z1082836308] | -7
O=C(CSc1nnc(-c2ccc3c(c2)OCO3)n1-c1ccccc1)c1ccc[nH]1 [Compound Z16254229] | 7
O=C(O)/C=C/c1ccc(NC(=O)CSC(c2ccccc2)c2ccccc2)cc1 [Compound Z224289160] | -8
O=C(COc1ccccc1F)NCc1ccc2[nH]c(=O)[nH]c2c1 [Compound Z1654002148] | 3
CCc1cccc(OCC(=O)C(C#N)c2nc3ccccc3[nH]2)c1 (stereo not shown) [Compound Z56595958] | 2
FC(F)(F)c1ccnc(Nc2ccc(N3CCOCC3)nc2)n1 [Compound Z318998372] | -7
O=C(CCN1CCCC1=O)Nc1ccc(Oc2ccc(F)cc2)cn1 [Compound Z1129155203] | -12
CCC(C)NC(=O)c1ccc2c(=O)n(CC(C)C)c3nnc(SCC(=O)Nc4cccc(C)c4)n3c2c1 (stereo not shown) [Compound Z1157725046] | 0
CC(O)(CNc1ccnc2c(F)cc(Br)cc12)CN1CCOCC1 (stereo not shown) [Compound Z1601616896] | -21
CCn1c(CSc2nnc(-c3sc(C)nc3C)o2)nc2cc(S(=O)(=O)N(C)C)ccc21 [Compound Z275500628] | 49
Cc1cc(SC(C)C(=O)Nc2ccc3[nH]c(=O)[nH]c3c2)nc2ccccc12 (stereo not shown) [Compound Z112518822] | -20
Cn1ccnc1C(O)(CC(=O)Nc1ccc(Oc2ncccn2)cc1)C(F)(F)F (stereo not shown) [Compound Z757638538] | -7
Clc1ccccc1Cn1ncc2c(N3CCCC3)ncnc21 [Compound Z1172235419] | 45

SMILES | First screening IR (inhibition rate) [%]
Cl.Oc1c(-c2ccccc2)nc2ccc(Cl)cc2c1-c1ccccc1 [Compound Z166605136] | 8
Cc1ccc(N(C(=O)c2ccc(C(C)(C)C)cc2)C2C=CS(=O)(=O)C2)cc1 (stereo not shown) [Compound Z56970107] | 4
Cc1sc2nc(-c3cccc(NC(=O)CN4CCN(CC5CCCO5)CC4)c3)[nH]c(=O)c2c1C (stereo not shown) [Compound Z46510296] | 2
CCn1ncc2c(C(=O)NCC(C)(O)C(F)(F)F)cc(-c3cccs3)nc21 (stereo not shown) [Compound Z1535762010] | -4
Cc1ccccc1Nc1ncnc(N)n1 [Compound Z56791580] | 15
O=C(NCc1nc(-c2ccccc2)n[nH]1)c1ccc(-c2ccccc2)cc1 [Compound Z991809296] | -14
NC(=O)c1ccc(COC(=O)CCc2ccc3ccccc3n2)c([N+](=O)[O-])c1 [Compound Z166077836] | -4
Cc1cc(NC(=O)c2cc(-c3cccs3)on2)n(CCC#N)n1 [Compound Z908095506] | -3
CC(Sc1nnc2ccccn12)C(=O)Nc1nc(-c2ccc(F)c(F)c2)cs1 (stereo not shown) [Compound Z20241790] | 21
Cn1cc(/C=N/Nc2ccnc3cc(Cl)ccc23)cn1 [Compound Z65478686] | 2
O=C(OCC(=O)N1N=C(c2ccc(Cl)cc2)CC1c1ccco1)c1cc(-c2ccco2)nc2ccccc12 (stereo not shown) [Compound Z18799147] | 0
CN(C)S(=O)(=O)CCCS(=O)(=O)N(C)C1CCC1 [Compound Z1720728610] | -6
COc1ccc(Br)c(C(=O)NCc2ccc(-c3csc(C)n3)cc2)c1 [Compound Z131231284] | -17
O=S(=O)(c1cccc(-c2n[nH]c(-c3ccccc3)c2-c2nc3ccccc3[nH]2)c1)N1CCCC1 [Compound Z56870429] | -20
Cc1cccc(-c2nn(-c3ccccc3)cc2C(=O)N(C)CC(=O)Nc2ccc(N3CCOCC3)cc2)c1 [Compound Z26593505] | 2
CC(C)(C)Cc1cc(NC(=O)c2cnn(-c3ccccc3Cl)c2)n[nH]1 [Compound Z1262045135] | 70
CN(CC(=O)N1CCN(CC(=O)NC(C)(C)C)CC1)c1ncnc2cc(-c3ccc(F)cc3)sc12 [Compound Z64655268] | 6
FC(F)(F)c1ccnc(Nc2ccc(NCc3ccccn3)cc2)n1 [Compound Z1192169075] | 39
NC(=O)NCc1ccc(C(=O)N2CCN(c3ncc(C(F)(F)F)cc3Cl)CC2)cc1 [Compound Z30640594] | 4
CCCCCCCCN1C(=O)/C(=C/c2c(NCCCN3CCOCC3)nc3c(C)cccn3c2=O)SC1=S [Compound Z56863983] | 0
CC1CN(CCCNc2ccc([N+](=O)[O-])c3nonc23)CC(C)O1 (stereo not shown) [Compound Z238688270] | 4

SMILES | First screening IR (inhibition rate) [%]
Cc1c(C#N)c(NC(=O)CN2CCN(c3ncnc4c3cnn4C)CC2)n(Cc2ccccc2)c1C [Compound Z234865770] | 13
Cc1cc(S(C)(=O)=O)c(C)c(S(=O)(=O)N2CCCC(C)C2)c1 (stereo not shown) [Compound Z1145185785] | 14
Cc1[nH]c(=O)[nH]c(=O)c1CCC(=O)N1CCC(CCc2ccccc2)CC1 [Compound Z219953062] | 4
O=C(NCCCN1CCCC1=O)c1cc(-c2ccccc2)nc2c1cnn2Cc1cccc(F)c1 [Compound Z116386688] | 3
CN(CCS(=O)(=O)c1cc(Cl)ccc1Cl)Cc1nc2ccccc2c(=O)[nH]1 [Compound Z46302626] | -9
COC(=O)c1cnc(N2CCCCC2)cc1N1CCCCC1 [Compound Z1465442209] | 0
N#Cc1c(CN2CCN(S(=O)(=O)c3cc(Cl)ccc3Cl)CC2)cn2ccccc12 [Compound Z220381008] | -9
Cc1cc(CN(C)C(=O)NCc2ccc(N3CCCC3=O)cc2)no1 [Compound Z485637938] | -16
N#CCOc1ccc(Nc2nccc(C(F)(F)F)n2)cc1 [Compound Z318833320] | 7
CCN(CC)C(=O)c1ccc(NS(=O)(=O)c2cc3c(cc2Cl)NC(=O)C3)cc1 [Compound Z1037385644] | -4
CCOc1ccc(-n2c(O)c(C=NCCCN3CCOCC3)c3ccccc3c2=O)cc1 [Compound Z31276645] | -6
Cl.Fc1c(-c2ccccc2)nc2ccc(Cl)cc2c1-c1ccccc1 [Compound Z223042638] | -12
Cc1cc(F)ccc1NC(=O)C(C)Oc1cccc(Cl)c1 (stereo not shown) [Compound Z29827650] | 11
Cc1sc2nc(CN3CCC(C)CC3)nc(N3CCCN(C(=O)Cc4ccccn4)CC3)c2c1C [Compound Z915925636] | 0
O=C(NCCNc1ncc(C(F)(F)F)cc1Cl)c1ccc2nc[nH]c2c1 [Compound Z101998542] | 25
CC1OC(C)(C)N(C(=O)OC(C)(C)C)C1CNC(=O)c1c(F)cccc1Cl (stereo not shown) [Compound Z1229892973] | -2
Cc1noc(C)c1COC(=O)c1c[nH]cc1-c1ccc(Cl)s1 [Compound Z796939908] | 0
Cc1cc(F)ccc1S(=O)(=O)Nc1ccc(C(=O)Nc2cccc(CO)c2)cc1 [Compound Z32804094] | 11
Cc1ccc(SCC(=O)OCC(=O)Nc2ccc3[nH]c(=O)[nH]c3c2)cc1C [Compound Z16616292] | -13
Cc1ccc(-c2c3c(nc4sc5c(c24)CCC5)CCC(C(C)(C)C)C3)cc1.Cl (stereo not shown) [Compound Z48952614] | 4
CC(C)C(C)NC(=O)C1CCN(Cc2ccc(C#N)cc2)CC1 (stereo not shown) [Compound Z975048678] | 5

Same assay, conditions: second screening, dissolved from fresh powder; n = 4; 10 μmol L−1 compound

SMILES | Second screening IR (inhibition rate) [%]
CC(C)(C)Cc1cc(NC(=O)c2cnn(-c3ccccc3Cl)c2)n[nH]1 [Compound Z1262045135] | 21
